Patent US9700509B2, “Solutions of lipophilic substances, especially medicinal solutions” (UNIVERSITÄT REGENSBURG, priority 2008, dated 2017)

Experiment: Dissolution in polyethylene glycol 400 (appearance of solution, microscope)
Format: physicochemical
Conditions: 20 mg phospholipid DHGPC in 1 ml polyethylene glycol 400, 21° C.
Description: Polyethylene glycol 400 served as solvent. […] This was confirmed under a microscope.
Microscope images confirmed this.

For CCCCCCC(=O)OC[C@H](COP(=O)([O-])OCC[N+](C)(C)C)OC(=O)CCCCCC [DHGPC, diheptanoyl glycerophosphocholine], the appearance of solution was “clear solution”.
